Data reported in US8193160B2 (priority 2006, dated 2012).
Values after ≈ are worked out from the molar mass of the structure shown.

How the values were obtained:
[1] = system: Magnaporthe vegetative mycelia, wild type Guy11; assay: microbe, parasite or virus in culture; format: cell-based, Magnaporthe grisea; conditions: for MIC: Pyricularia oryzae, read-out: Minimum Inhibitory Concentration (MIC), Guy11
wild type conidia = format: cell-based, Magnaporthe grisea
wild type appressoria = format: cell-based, Magnaporthe grisea
abc3Δ conidia = format: cell-based, Magnaporthe grisea
ABC3 promoter = format: cell-based, Magnaporthe grisea

Compound: CCCCNC(=O)n1c(NC(=O)OC)nc2ccccc21 [Benomyl]
- MIC [1]: 2 µg/mL (≈ 6.89 µM)

Compound: C[C@H]1CCC/C=C/[C@@H]2C[C@H](O)C[C@H]2[C@H](O)/C=C/C(=O)O1 [Brefeldin A]
- Minimum Inhibitory Concentration (MIC), Guy11 [1]: 40 µg/mL

Compound: OC(Cn1cncn1)(Cn1cncn1)c1ccc(F)cc1F [Fluconazole]
- MIC [1]: 2500 µg/mL (≈ 8160 µM)

Compound: CCC(C)n1ncn(-c2ccc(N3CCN(c4ccc(OCC5COC(Cn6cncn6)(c6ccc(Cl)cc6Cl)O5)cc4)CC3)cc2)c1=O (stereo not drawn) [Itraconazole]
- MIC [1]: 2000 µg/mL (≈ 2830 µM)

Compound: [Cl-].[K+] [KCl, potassium chloride]
- reversal of defects associated with Valinomycin action (wild type conidia): failed to reverse

Compound: CCC(=C/[C@H](C)C/C=C/C(C)=C/[C@@H](C)C(=O)[C@@H](C)[C@H](O)[C@@H](C)C/C(C)=C/C(=O)O)/C=C/[C@@H]1OC(=O)C=C[C@@H]1C [Leptomycin B]
- Minimum Inhibitory Concentration (MIC), Guy11 [1]: 0.0075 µg/mL

Compound: CC1=CC(=O)c2ccccc2C1=O [Menadione]
- effect on host penetration compared to treatment with peroxide (wild type appressoria): slightly reduced effect

Compound: CC(C)[C@@H]1NC(=O)[C@H](C)OC(=O)[C@@H](C(C)C)NC(=O)[C@@H](C(C)C)OC(=O)[C@H](C(C)C)NC(=O)[C@H](C)OC(=O)[C@@H](C(C)C)NC(=O)[C@@H](C(C)C)OC(=O)[C@H](C(C)C)NC(=O)[C@H](C)OC(=O)[C@@H](C(C)C)NC(=O)[C@@H](C(C)C)OC1=O [Valinomycin]
- MIC [1]: 20 µg/mL (≈ 18 µM)
- effect on conidia (germ tube emergence) (abc3Δ conidia): complete blockage of conidial germ tube emergence
- germ tube growth (abc3Δ conidia): inhibited
- frequency of appressoria formation (wild type conidia): 61±2%
- germ tube growth (wild type conidia): could withstand elevated concentration

Compound: COc1ccc(CCN(C)CCCC(C#N)(c2ccc(OC)c(OC)c2)C(C)C)cc1OC (stereo not drawn) [Verapamil]
- decrease in penetration peg formation (wild type appressoria): ≤ 74%
- effect on germ tube emergence or growth (wild type appressoria): without affecting

Compound: OO [hydrogen peroxide]
- appressoria able to breach the host surface (wild type appressoria): 36±2.8%
- peroxide level that blocked germ tube emergence (wild type appressoria): exceeding 5 mM
- growth under oxidative stress (wild type Guy11 strain): unaffected
- ABC3 promoter driven destabilized-GFP fluorescence versus untreated control (ABC3 promoter): four fold higher

Compound: C[n+]1ccc(-c2cc[n+](C)cc2)cc1 [paraquat]
- effect on host penetration compared to treatment with peroxide (wild type appressoria): slightly reduced effect

Compound: Actinomycin D
- Minimum Inhibitory Concentration (MIC), Guy11 [1]: 15 µg/mL

Compound: Gramicidin D
- Minimum Inhibitory Concentration (MIC), Guy11 [1]: 180 µg/mL
